Several values for one entry are separate records, joined by “and”; a condition that tells them apart may be missing. Identical values can stand only once. Counter-ions that a name gives are not always drawn. Marks after values point to notes of the source that are not given here.
How the values were obtained:
EphrinB2-EphB4 = biological target: T1, EphrinB2-EphB4 (Homo sapiens, UniProt P54760); test: Octet 80 sec association/500 sec dissociation, immobilized human EphrinB2-Fc binding to soluble human EphB4-His; details: for EphB4 Inhibition Percent, Inhibition of Association ONLY: at 3.2 μM and 80 seconds; for EphB4 Inhibition Percent, Inhibition of Association ONLY / EphB4 Inhibition Percent, Inhibition of Association-Dissociation: immobilized human EphrinB2, 25 nM soluble human EphB4; for EphB4 Inhibition Percent, Inhibition of Association-Dissociation: at 3.2 μM and 580 seconds
T1 construct: soluble human EphB1-His, EphB2-His, and EphB4-His ectodomains; commercially available human EphrinB1-Fc (EB1), EphrinB2-Fc (EB2), and EphrinB3-Fc (EB3) ectodomain proteins; purchased
T1 sequence (P54760 16-539 limits assumed): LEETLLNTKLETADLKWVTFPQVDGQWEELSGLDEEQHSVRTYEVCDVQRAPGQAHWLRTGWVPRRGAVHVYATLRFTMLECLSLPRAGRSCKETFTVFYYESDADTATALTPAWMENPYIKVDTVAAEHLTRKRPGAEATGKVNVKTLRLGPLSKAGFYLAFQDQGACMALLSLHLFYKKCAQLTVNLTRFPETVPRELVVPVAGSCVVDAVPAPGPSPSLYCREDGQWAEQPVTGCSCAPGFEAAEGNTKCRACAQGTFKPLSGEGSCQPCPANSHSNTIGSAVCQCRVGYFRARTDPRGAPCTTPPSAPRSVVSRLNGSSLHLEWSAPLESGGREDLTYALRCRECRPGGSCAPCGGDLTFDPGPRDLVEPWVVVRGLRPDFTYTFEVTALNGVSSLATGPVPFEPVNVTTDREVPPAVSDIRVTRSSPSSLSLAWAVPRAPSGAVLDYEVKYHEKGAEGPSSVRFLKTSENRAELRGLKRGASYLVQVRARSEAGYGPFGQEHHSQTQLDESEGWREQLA
Experimental: (§1) In another experiment, whether certain A20 analogs might have specificity for different Eph receptors was tested. An Octet RED384 system was used to obtain biophysical ON-OFF binding data (association-dissociation) for the three different human EphrinB2-EphB1, EphrinB2-EphB2, and EphrinB2-EphB4 protein-protein interactions and to assess the effect of A20 chemicals on the binding kinetics.
(§2) FIGS. 72A-72C show three example Octet sensorgram response traces for the immobilized human EphrinB2 ectodomain protein binding to soluble forms of the human EphB1, EphB2, and EphB4 ectodomain proteins, in the absence or presence of an A20 chemical (buffer conditions are always PBSTD:PBS with 0.05% Tween-20, 1% DMSO, and +/− indicated chemical). After loading EphrinB2-Fc protein to Octet AHC biosensors, washing, and obtaining stable baseline measurements in the appropriate PBSTD (either with or without indicated chemical), the sensors are placed in its buffer that also contains the indicated soluble EphB protein for the association step (0-80″), and then returned to its buffer for the dissociation step (81″-580″). In each figure (FIGS. 72A-72C), a sensorgram run using 10 μM of the 2×HCl salt form of A20-I is compared to the no compound control run to exemplify the maximum level of reduced response signal typically obtained with a potent A20 chemical.
(§3) Because the response levels during the dissociation step plateau for the EphrinB2-EphB2 and EphrinB2-EphB1 interactions by the first 80″, AUCs were also calculated for run data encompassing the first 160″ of each experiment to account for both the 80″ association data (red asterisks) and the first 80″ of dissociation data (marked by green line and asterisks).
(§4) The selectivity of another A20 analog (a 3×HCL salt form of compound BQPB4) in comparison to previously tested compound, A20-1, was tested as described in Example 27 above.
(§5) Further to the experiments listed above, a series of dose-response experiments were conducted to determine the IC50 of a selected A20 chemical (A20-1) on the kinetics of human EphrinB2 ligand ectodomain protein binding to its cognate human EphB1, EphB2, and EphB4 receptor ectodomain proteins. FIG. 74A-74C are representative sensorgrams showing the effect of 0, 0.1, 0.2, 0.4, 0.8, 1.6, and 3.2 μM, concentrations of the 2×HCl salt of A20-I along with a 10 μM max standard (also A20-1) on three different Ephrin-EphB interactions (e.g., EphB1 in FIG. 74A, EphB2 in FIG. 74B and EphB4 in FIG. 74C). […] Additional IC50 values were determined at specific timepoints, at 75″ into the association step and at 55″ into the dissociation step (135″).
(§6) All absolute and relative IC50 values are provided in the Table 6 below, where absolute are based off the full binding sensorgram traces, and relative are based off of the max control traces.
(§7) In another experiment, the % inhibition for various A20 analog chemicals against the three different EphrinB2-EphB protein interactions was determined. Specifically, the percent inhibition for immobilized human EphrinB2-Fc binding to 25 nM soluble human EphB1-His (FIG. 76A, enlarged in FIG. 76D), EphB2-His (FIG. 76B, enlarged in FIG. 76E), and EphB4-His (FIG. 76C, enlarged in FIG. 76F) with 3511-I, 8009-9255, QTM-Br, A19, A19-NO2, and IM (all at 3.2 μM) was determined.

EphrinB2-EphB2 = biological target: T2, EphrinB2-EphB2 (Homo sapiens, UniProt P29323); test: Octet 80 sec association/500 sec dissociation, immobilized human EphrinB2-Fc binding to soluble human EphB2-His; details: for EphB2 Inhibition Percent, Inhibition of Association ONLY: at 3.2 μM and 80 seconds; for EphB2 Inhibition Percent, Inhibition of Association ONLY / EphB2 Inhibition Percent, Inhibition of Association-Dissociation: immobilized human EphrinB2, 25 nM soluble human EphB2; for EphB2 Inhibition Percent, Inhibition of Association-Dissociation: at 3.2 μM and 580 seconds; for % Inhibition: Association + Dissociation (160 sec) / % Inhibition: Association ONLY (80 sec): EphB2, 25 nM EphB2, 3.2 μM compound, A20-I as max control, 0* = less than 0, no inhibition
T2 construct: soluble human EphB1-His, EphB2-His, and EphB4-His ectodomains; commercially available human EphrinB1-Fc (EB1), EphrinB2-Fc (EB2), and EphrinB3-Fc (EB3) ectodomain proteins; purchased
T2 sequence (P29323 19-543 limits assumed): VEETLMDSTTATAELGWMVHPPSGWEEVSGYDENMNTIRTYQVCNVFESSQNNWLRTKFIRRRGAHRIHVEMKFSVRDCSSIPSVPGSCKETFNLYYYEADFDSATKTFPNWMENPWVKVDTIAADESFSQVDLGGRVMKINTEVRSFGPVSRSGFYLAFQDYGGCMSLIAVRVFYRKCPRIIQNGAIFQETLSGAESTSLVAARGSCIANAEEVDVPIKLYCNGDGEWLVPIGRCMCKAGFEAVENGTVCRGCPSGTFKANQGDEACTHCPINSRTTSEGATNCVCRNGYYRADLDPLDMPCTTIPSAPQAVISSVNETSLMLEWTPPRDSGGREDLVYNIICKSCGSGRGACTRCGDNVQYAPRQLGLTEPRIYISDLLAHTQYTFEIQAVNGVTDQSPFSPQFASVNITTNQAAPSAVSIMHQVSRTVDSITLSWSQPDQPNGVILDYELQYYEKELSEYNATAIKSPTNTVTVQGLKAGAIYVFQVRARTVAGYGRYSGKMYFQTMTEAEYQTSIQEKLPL
Experimental: as §1, §2, §3, §4, §5, §6, §7

EphrinB2-EphB1 = biological target: T3, EphrinB2-EphB1 (Homo sapiens, UniProt P54762); test: Octet 80 sec association/500 sec dissociation, immobilized human EphrinB2-Fc binding to soluble human EphB1-His; details: for EphB1 Inhibition Percent, Inhibition of Association ONLY: at 3.2 μM and 80 seconds; for EphB1 Inhibition Percent, Inhibition of Association ONLY / EphB1 Inhibition Percent, Inhibition of Association-Dissociation: immobilized human EphrinB2, 25 nM soluble human EphB1; for EphB1 Inhibition Percent, Inhibition of Association-Dissociation: at 3.2 μM and 580 seconds
T3 construct: soluble human EphB1-His, EphB2-His, and EphB4-His ectodomains; commercially available human EphrinB1-Fc (EB1), EphrinB2-Fc (EB2), and EphrinB3-Fc (EB3) ectodomain proteins; purchased
T3 sequence (P54762 18-540 limits assumed): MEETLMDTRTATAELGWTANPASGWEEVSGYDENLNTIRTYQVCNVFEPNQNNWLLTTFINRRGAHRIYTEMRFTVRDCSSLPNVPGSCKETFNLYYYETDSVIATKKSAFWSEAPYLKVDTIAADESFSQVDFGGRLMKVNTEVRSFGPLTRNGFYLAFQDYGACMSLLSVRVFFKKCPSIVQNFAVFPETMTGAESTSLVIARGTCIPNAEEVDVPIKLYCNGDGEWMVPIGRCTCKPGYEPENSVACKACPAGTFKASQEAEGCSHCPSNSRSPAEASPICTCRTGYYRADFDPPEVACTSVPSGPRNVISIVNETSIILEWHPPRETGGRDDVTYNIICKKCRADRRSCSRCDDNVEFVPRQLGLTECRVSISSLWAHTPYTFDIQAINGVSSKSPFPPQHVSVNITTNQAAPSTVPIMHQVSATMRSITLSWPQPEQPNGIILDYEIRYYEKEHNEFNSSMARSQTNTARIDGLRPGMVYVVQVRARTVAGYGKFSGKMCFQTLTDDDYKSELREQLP
Experimental: as §1, §2, §3, §4, §5, §6, §7

[1] = listed as A20-1.2xMSA, methanesulfonate
[2] = EphB4, 25 nM EphB4, 3.2 μM compound, A20-I as max control, 0* = less than 0, no inhibition
[3] = EphB1, 25 nM EphB1, 3.2 μM compound, A20-I as max control, 0* = less than 0, no inhibition

Row | EphB1 Inhibition Percent, Inhibition of Association ONLY (EphrinB2-EphB1) | Structure (SMILES) | EphB4 Inhibition Percent, Inhibition of Association ONLY (EphrinB2-EphB4) | EphB4 Inhibition Percent, Inhibition of Association-Dissociation (EphrinB2-EphB4) | EphB2 Inhibition Percent, Inhibition of Association ONLY (EphrinB2-EphB2) | EphB2 Inhibition Percent, Inhibition of Association-Dissociation (EphrinB2-EphB2) | EphB1 Inhibition Percent, Inhibition of Association-Dissociation (EphrinB2-EphB1) | also measured
1 | 39.6% | COc1ccccc1N1CCN(Cc2cc(I)c(O)c3ncccc23)CC1 [Compound 71-A, 7-iodo-5-((4-(2-methoxyphenyl)piperazin-1-yl)methyl)quinolin-8-ol dihydrochloride] | 17.5% | 35.6% | 58.7% | 73.2% | 52.3% | 
2 |  | Oc1c(I)cc(CN2CCOCC2)c2cccnc12 [Compound 89, 4-((8-hydroxy-7-iodoquinolin-1-ium-5-yl)methyl)morpholin-4-ium methanesulfonate] |  |  |  |  |  | EphB4 Inhibition Percent, Inhibition of Association ONLY (EphrinB2-EphB4; methanesulfonate): 1.7%; EphB4 Inhibition Percent, Inhibition of Association-Dissociation (EphrinB2-EphB4; methanesulfonate): 25.4%; % Inhibition: Association + Dissociation (160 sec) (EphrinB2-EphB2; [1]): 74.6%; % Inhibition: Association ONLY (80 sec) (EphrinB2-EphB2; [1]): 55.1%; EphB2 Inhibition Percent, Inhibition of Association ONLY (EphrinB2-EphB2; methanesulfonate): 55.1%; EphB2 Inhibition Percent, Inhibition of Association-Dissociation (EphrinB2-EphB2; methanesulfonate): 74.6%; % Inhibition: Association + Dissociation (160 sec) (EphrinB2-EphB1; EphB1, 25 nM EphB1, 3.2 μM compound, A20-I as max control, 0* = less than 0, no inhibition, listed as A20-1.2xMSA, methanesulfonate): 46.3%; EphB1 Inhibition Percent, Inhibition of Association ONLY (EphrinB2-EphB1; methanesulfonate): 28.4%; EphB1 Inhibition Percent, Inhibition of Association-Dissociation (EphrinB2-EphB1; methanesulfonate): 46.3%
3 | 21.4% | Oc1ccc(CN2CCN(C3CCCC3)CC2)c2cccnc12 [Compound 83, 5-((4-cyclopentylpiperazin-1-yl)methyl)quinolin-8-ol] | 0.5% | 0.5% | 20.9% | 21.2% | 23.6% | 
4 |  | Oc1ccc(CN2CCN(Cc3ccc(C(F)(F)F)cc3)CC2)c2cccnc12 [Compound 49, 8-hydroxy-5-((4-(4-(trifluoromethyl)benzyl)piperazin-1-ium-1-yl)methyl)quinolin-1-ium chloride] | 0*/0*% | 0% and 2.8% | 21.3% and 24.9% | 46.2% and 36.2% | 19.8% and 39.0% | 

Row | Structure (SMILES) | EphB1 Inhibition Percent, Inhibition of Association ONLY (EphrinB2-EphB1) | EphB4 Inhibition Percent, Inhibition of Association ONLY (EphrinB2-EphB4) | EphB4 Inhibition Percent, Inhibition of Association-Dissociation (EphrinB2-EphB4) | EphB2 Inhibition Percent, Inhibition of Association ONLY (EphrinB2-EphB2) | EphB2 Inhibition Percent, Inhibition of Association-Dissociation (EphrinB2-EphB2) | EphB1 Inhibition Percent, Inhibition of Association-Dissociation (EphrinB2-EphB1) | also measured
5 | Oc1cccc2cccnc12 [Compound 102, 8-Hydroxyquinoline, reference compound] | 0*% | 0*% | 0*% | 0*% | 0*% | 0*% | % Inhibition: Association + Dissociation (160 sec) (EphrinB2-EphB4; [2]): 0* %; % Inhibition: Association ONLY (80 sec) (EphrinB2-EphB4; [2]): 0* %; inhibition of EphrinB2-EphB interactions (EphrinB2-EphB2; 3.2 μM, EphB1, EphB2 and EphB4): unable to disrupt any of the EphrinB2-EphB interactions; % Inhibition: Association + Dissociation (160 sec) (EphrinB2-EphB2): 0* %; % Inhibition: Association ONLY (80 sec) (EphrinB2-EphB2): 0* %; % Inhibition: Association + Dissociation (160 sec) (EphrinB2-EphB1; [3]): 0* %; % Inhibition: Association ONLY (80 sec) (EphrinB2-EphB1; [3]): 0* %
